Laboratory results as given in PubChem BioAssay AID1645864 (Buhrlage Lab, Dana-Farber Cancer Institute and Novartis …, 2021).
Activity calls are given as the source filed them.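 The calls were made as follows: active = maximal inhibition of USP17 at or above 30% in the confirmation dose-response, a value not among the printed readouts; inactive = the rest.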

target: Ubiquitin carboxyl-terminal hydrolase 17-like protein 5 (Homo sapiens) (UniProt A8MUK1); assay: ubiquitin-specific protease 17 DUB inhibitors, concentration-effect assay, cell-free, verification of initial screening actives (AID 1645864); details: purified USP17, ubiquitin-rhodamine cleavage fluorescence, 3 h
Sequence (A8MUK1 whole entry, looked up): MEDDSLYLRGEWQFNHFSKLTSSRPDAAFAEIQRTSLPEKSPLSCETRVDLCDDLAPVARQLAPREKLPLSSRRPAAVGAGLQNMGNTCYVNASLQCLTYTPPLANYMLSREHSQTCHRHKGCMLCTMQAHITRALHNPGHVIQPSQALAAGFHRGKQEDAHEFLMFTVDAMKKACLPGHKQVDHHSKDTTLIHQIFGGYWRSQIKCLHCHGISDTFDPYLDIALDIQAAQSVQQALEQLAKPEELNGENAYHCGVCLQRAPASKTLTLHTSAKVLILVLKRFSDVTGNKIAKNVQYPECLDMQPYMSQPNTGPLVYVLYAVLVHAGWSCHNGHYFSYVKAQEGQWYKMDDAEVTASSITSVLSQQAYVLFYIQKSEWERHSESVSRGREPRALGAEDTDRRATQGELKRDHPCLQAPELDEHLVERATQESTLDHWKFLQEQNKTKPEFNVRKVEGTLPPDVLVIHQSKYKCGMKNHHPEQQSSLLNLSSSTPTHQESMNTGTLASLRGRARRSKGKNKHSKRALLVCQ

| IC50 | SMILES |
| --- | --- |
| > 50 µM (inactive) | COc1ccc(Cl)cc1-n1nnc(C(=O)N2CCc3ccccc3C2)c1C |
| 23.1 µM | COc1cc2c(c(OCC(=O)Nc3ccc4c(c3)OCCO4)c1)C(=O)O[C@@H](C)CCCC(=O)CCCCC2 |
| > 50 µM (inactive) | COc1cccc(CN2CCc3nc4nc(C)ccc4cc3C2)c1 |
| 24.4 µM | Cc1ccc(C)c(Cn2nnc3c(=O)[nH]c(C4CCN(S(=O)(=O)c5ccc(S(=O)(=O)NC6CC6)cc5)CC4)nc32)c1 |
| 37.9 µM | O=C(CSc1nc2ccncc2[nH]1)Nc1ccc(Br)cc1F |
| 2.96 µM | Cc1ccccc1C(=O)c1ccc(C(=O)NC2CCCCCC2)[nH]1 |
| > 50 µM (inactive) | O=C(Nc1ccc2c(c1)OCO2)C1CCN(Cc2nc3ccccc3s2)CC1 |
| 9.31 µM | COc1cccc(NC(=O)Nc2ccc3nc4n(c(=O)c3c2)CCCC4)c1 |
| > 50 µM (inactive) | COc1ccc(Cl)cc1N1C(=O)[C@H]2[C@@H](C1=O)[C@]1(C(=O)Nc3c(C)cc(C)cc31)N1CCC[C@@H]21 |
| 15.2 µM | Oc1ccc(-c2nc3ccc(Cl)cn3c2NC2CCCCC2)cc1 |
| 28.6 µM | Cc1ccc(Cn2cc(-c3noc(-c4ccncc4)n3)nn2)cc1 |
| 11.1 µM | COc1c(O)cc(CC(=O)O)c(C(C)=O)c1O |
| 2.88 µM | Cc1c(-c2ccc(C#N)cc2)oc2ccc(Br)cc2c1=O |
| > 50 µM (inactive) | Cc1ccc(C(=O)Nc2ccc(S(=O)(=O)N3CCCC3)cc2)cc1Br |
| 3.48 µM | Cc1sc2ccn(C)c(=O)c2c1C(=O)NC1CCCC1 |
| 3.85 µM | CC(C)NC(=O)Cn1ccn2nc(-c3ccc(Cl)cc3)cc2c1=O |
| > 50 µM (inactive) | O=C(COC(=O)c1ccc(NS(=O)(=O)c2ccc3c(c2)OCCO3)cc1)NCc1ccc(Cl)cc1 |
| 17.4 µM | O=C(/C=C/c1ccc2c(c1)OCO2)Nc1nc2c(s1)COCC2 |
| 1.61 µM | COc1ccc(-c2cc(-c3ccccc3)nc(SCC(N)=O)c2C#N)cc1OC |
| > 50 µM (inactive) | O=C(Cn1ncc2c(N3CCCCCC3)ncnc21)NCc1ccccc1 |
| 23.9 µM | Cc1cc(C(=O)N2CCOCC2)c(C)n1-c1ccc(O)cc1 |
| > 50 µM (inactive) | COc1ccc(C(C(=O)NCc2ccccc2)N(C(=O)CCN2CCc3ccccc32)c2ccc(C)c(C)c2)cc1 (centres undefined) |
| 29.6 µM | CNC(=O)CC1NC(=O)c2csc(n2)-c2ccc(-c3nc(C4=NC(C(=O)N5CCCC5C(N)=O)CO4)cs3)nc2-c2csc(n2)-c2csc(n2)C(C(O)c2ccccc2)NC(=O)CNC(=O)c2nc(sc2COC)C(C(C)C)NC(=O)c2nc1sc2C (centres undefined) |
| 29.8 µM | O=C(NCCn1ccc2ccccc21)c1cc2ccccc2oc1=O |
| > 50 µM (inactive) | Cn1ncc2c(=O)n(Cc3cccc(Cl)c3)cnc21 |

| IC50 | SMILES |
| --- | --- |
| 16.2 µM | COc1cnc(-c2ccccn2)nc1Sc1ccccc1Cl |
| 2.84 µM | Cc1cc(NC(=O)Cn2c(=O)n(CCCCC(=O)NCc3ccco3)c(=O)c3ccccc32)ccc1Br |
| 32.2 µM | O=C(c1cc(-c2ccc(Cl)cc2)n[nH]1)N1CCN(C(=O)c2ccco2)CC1 |
| 28.2 µM | O=C(Nc1ccc(F)cc1F)NC1Cc2ccccc2C1 |
| 2.35 µM | CC1(C)Cc2c(sc3nc(Cc4ccccc4)nc(SCC(=O)Nc4ccccc4)c23)CO1 |
| 30.5 µM | O=C(NCC(c1cccnc1)N1CCc2ccccc2C1)C(=O)Nc1ccc2c(c1)OCO2 (centres undefined) |
| 14.5 µM | COc1ccc(NC(=O)C2Oc3ccc(C)cc3NC2=O)cc1Cl (centres undefined) |
| > 50 µM (inactive) | CCc1ccc2[nH]c(=O)c(CN(CCc3ccc(OC)c(OC)c3)C(=O)Nc3ccccc3)cc2c1 |
| > 50 µM (inactive) | CC1CCN(Cc2nnc(-c3cn(CC(=O)NC4CCCCC4)c4ccccc34)o2)CC1 |
| 12.7 µM | Cc1nn(CC(=O)Nc2ccc(Br)c3cccnc23)c(=O)c2ccccc12 |
| > 50 µM (inactive) | CCS(=O)(=O)c1ccccc1C(=O)Nc1ccc2sc(C)nc2c1 |
| 0.486 µM | CC1CC(=O)c2c(cc3c(-c4c(O)cc(O)c5c(O)c6c(cc45)OC(C)CC6=O)c(O)cc(O)c3c2O)O1 (centres undefined) |
| 26.8 µM | Cc1cc(=O)n(CC(=O)Nc2ccccc2C)c(Nc2ccc(F)cc2)n1 |
| 34.3 µM | CC1=C(C(=O)Nc2ccccc2C)C(c2ccc(OCc3ccccc3F)cc2)n2ncnc2N1 (centres undefined) |
| 43 µM | CC(=O)c1cccc(NC(=O)c2ccc(N3CCCCC3)nn2)c1 |
| 15.2 µM | Cc1cccc(C(=O)Nc2cccc(SC(C(=O)Nc3ccc(Cl)c(C(=O)O)c3)c3ccccc3)c2)c1 (centres undefined) |
| 26.2 µM | COc1ccc(NC(=O)C2C3C=CC4(O3)C2C(=O)N(CCc2ccccc2)C4C(=O)NC2CCCCC2)cc1 (centres undefined) |
| 12.1 µM | O=C(Cn1c(-c2ccccc2)ncc(C(=O)NC2CC2)c1=O)Nc1ccccc1 |
| > 50 µM (inactive) | O=S(=O)(c1cccc2cccnc12)N(CCc1ccccc1)C1CCN(CCc2ccc(Cl)cc2)CC1 |
| 5.49 µM | COc1ccc(-c2cc3c(=O)n(CC(=O)Nc4ccccc4Cl)ccn3n2)cc1 |
| 33.9 µM | Cc1cc(C)n(-c2ccc(C(=O)NCc3ccc(F)cc3)cn2)n1 |
| 40.4 µM | COc1ccc(C2CC(=O)Nc3ccc4ccccc4c32)c(OC)c1OC (centres undefined) |
| 15.4 µM | Cc1cc(C(F)(F)F)n(-c2ccc(NC(=O)Nc3cccc(C(F)(F)F)c3)cc2)n1 |
| > 50 µM (inactive) | O=c1c2cnc3nc(-c4cccnc4)nn3c2ccn1CCc1ccccc1 |
| > 50 µM (inactive) | CC(=O)c1ccc(NC(=O)C2CCN(c3cncnc3N3CCCC3)CC2)cc1 |

| IC50 | SMILES |
| --- | --- |
| 0.13 µM | COc1cc(OC)cc(-c2nc(-c3cn(-c4cccc(F)c4)nn3)no2)c1 |
| 37.9 µM | O=C(Cn1c(=O)n(Cc2ccccc2)c(=O)c2ncccc21)NCc1ccccc1Cl |
| 0.31 µM | C[C@@H]1OC2=C(C(=O)c3cccc(O)c3C2=O)[C@H](O)[C@@H]1O |
| > 50 µM (inactive) | COc1cc(NC(=O)COC(=O)Cn2cnc3ccccc32)cc(OC)c1 |
| 13.7 µM | O=C1NC(=O)/C(=C/c2ccc(OC(=O)c3ccc(Cl)cc3Cl)cc2)N1 |
| 3.75 µM | COc1ccc(-c2cc3nc([C@H](C)NC(=O)Cc4cccc(F)c4)nn3cn2)cc1 |
| > 50 µM (inactive) | CC(=O)c1ccc(N2C(=O)N(Cc3cccc([N+](=O)[O-])c3)c3ccccc3S2(=O)=O)cc1 |
| 26.8 µM | COc1ccc(-n2nnc(C(=O)Nc3ccccc3)c2N)cc1 |
| > 50 µM (inactive) | Cc1ccccc1NC(=O)c1ccc(N2CCCCC2)nn1 |
| > 50 µM (inactive) | CSc1nc(Cc2ccc(Cl)cc2)nc2ccccc12 |
| 2.21 µM | Cc1cccc(-n2ccnc(SCC(=O)Nc3ccc(Cl)cc3F)c2=O)c1 |
| > 50 µM (inactive) | CCOc1ccc(CCNC(=O)c2ccc3c(c2)N(CC)C(=O)c2ccccc2S3)cc1OCC |
| > 50 µM (inactive) | Clc1cccc(N2CCN(c3ncnc4nc[nH]c34)CC2)c1 |
| 31.7 µM | CCOc1ccc(CC(=O)Nc2ccc(-c3cn4cccnc4n3)cc2)cc1 |
| 24.5 µM | Cc1cc(O)c2c3c(c(O)c4c(c13)O[C@@H](C)C4(C)C)C(=O)C2=O |
| 9.91 µM | O=C(COC(=O)c1ccc(Cl)cc1)Nc1ccc2[nH]c(=O)[nH]c2c1 |
| > 50 µM (inactive) | CC(=O)Nc1ccc(Cc2nc(-c3ccc4c(c3)nc(C)c(=O)n4C3CCCC3)no2)cc1 |
| 33.4 µM | O=C(CN1C=NC2=NS(=O)(=O)c3ccccc3N21)Nc1cc(F)ccc1F |
| 21.7 µM | Cc1cc(C)c2sc(N(CCCn3ccnc3)C(=O)Cc3ccccc3)nc2c1 |
| 47 µM | Cc1nn(CC(=O)NCc2ccccc2F)c2ccccc12 |
| > 50 µM (inactive) | COc1ccc(C(=O)CCN2CCOCC2)cc1[N+](=O)[O-] |
| 40.8 µM | Clc1ccccc1CSc1nnc(C2CCCCC2)n1Cc1ccccc1 |
| > 50 µM (inactive) | COc1cccc(NC(=O)C2CCN(C(=O)c3cc(-c4cccnc4)n[nH]3)CC2)c1 |
| > 50 µM (inactive) | Cc1ccccc1C(=O)OCCN1C(=O)c2cccc3c(N4CCCCC4)ccc(c23)C1=O |
| 29.2 µM | COc1cccc(N2CCN(C(=O)C3CCN(c4nc(NC(C)=O)ns4)CC3)CC2)c1 |

| IC50 | SMILES |
| --- | --- |
| 3.04 µM | COc1ccc(N(CC(=O)NC2CCCCC2)C(=O)c2ccc(-c3ccccc3)[nH]2)cc1OC |
| > 50 µM (inactive) | N#Cc1cccc(NC(=O)Cn2cccc(-c3nc(-c4ccccc4)no3)c2=O)c1 |
| 3.99 µM | O=C(NCc1ccc2c(c1)OCO2)c1cc2c(s1)-c1ccccc1OC2 |
| > 50 µM (inactive) | CCOC(=O)c1cc2c(ccn2C)n1CC(=O)N1CCc2ccccc2C1 |
| > 50 µM (inactive) | Fc1ccc(Oc2nc(CN3CCOCC3)nc3sc4c(c23)CCCC4)c(Cl)c1 |
| 20.2 µM | CCc1ccc(NC(=O)Cc2nnc3cc(-c4nc(C)no4)ccn23)cc1 |
| 22.8 µM | Cc1cccc(-n2cnc(C(=O)NCc3ccc(F)cc3)c2)n1 |
| 34.2 µM | CC1=C(c2ccc(F)cc2)S(=O)(=O)NC1=NCC(=O)Nc1cccc(F)c1 |
| 20.5 µM | CCOC(=O)CSc1nnc(-c2cnn(-c3ccccc3)c2N)o1 |
| > 50 µM (inactive) | Cc1cc2nc(/C=C/c3ccccc3)n(Cc3cccc(F)c3)c2cc1C |
| 1.14 µM | CC(=O)C1=C(O)[C@]2(O)C(=O)c3c(c(C)c4ccc(C)c(O)c4c3O)C[C@H]2[C@@H](N)C1=O |
| 35.3 µM | COc1ccc(CCNC(=O)CCCCn2c(=O)c3ccccc3n(Cc3cccc(Cl)c3)c2=O)cc1OC |
| 47.9 µM | O=c1oc2ccccc2c2nn(-c3ccccn3)cc12 |
| > 50 µM (inactive) | CCN1C[C@@H]2C[C@]2(c2ccccc2OC)C(=O)c2ncccc21 |
| 19.3 µM | O=C(Nc1cc(-c2cccnc2)no1)c1ccc(F)c(F)c1 |
| 25.4 µM | O=C(COc1ccc2oc3c(c2c1)CCCC3)Nc1ccccn1 |
| 0.115 µM | CC1(O)CC(=O)c2c(cc3cc(O)cc(O)c3c2O)C1 (centres undefined) |
| 18.8 µM | COc1ccc(CN=C2NS(=O)(=O)C(c3ccc(F)cc3)=C2C)cc1OC |
| > 50 µM (inactive) | CCN1C(=O)c2cccnc2Sc2cc(NC(=O)c3ccc(Cl)s3)ccc21 |
| > 50 µM (inactive) | COc1ccc2nc(Nc3nc(-c4cnc(N5CCOCC5)nc4C)cc(=O)[nH]3)nc(C)c2c1 |
| > 50 µM (inactive) | COc1ccc(NC(=O)C2CCN(c3cncnc3N(C)C)CC2)cc1OC |
| > 50 µM (inactive) | Cc1csc2ncc(C(=O)N3CCN(c4ccccc4F)CC3)c(=O)n12 |
| > 50 µM (inactive) | CCC(=O)OCc1cnc(C)c2oc(=O)c(-c3nc(-c4ccccc4)no3)cc12 |

| SMILES | IC50 |
| --- | --- |
| COc1cccc2c1NC(=O)C21CCN(C(=O)Nc2cccc3ccccc23)CC1 | > 50 µM (inactive) |
